# Source: US10583129B2, “Use of EP4 receptor antagonists for the treatment of NASH-associated liver cancer” (AskAt Inc., priority 2016, dated 2020)
# Experiments:
# [1] = test system: immune cells obtained from mouse livers; details: liver, 30 mg/kg QD, vs vehicle
# Experimental: FIG. 5A depicts flow cytometry analysis of immune cells between vehicle-treated mice or Compound A-treated mice. The percentages of total CD11c^hi MHC class II (MHC II)^hi, CD11b^+ CD11c^hi MHC II^hi, or CD103^+ CD11c^hiMHC II^hi cells were analyzed by flow cytometry. Data are represented as means±SEM.
# FIG. 6A depicts the percentages of CD3^+ CD4^+ Foxp3^+, CD3^+ CD4^+ Foxp3^−, CD3^+ CD8^+ cells analyzed by flow cytometry. The ratio of CD8^+ T cells to CD4^+ Foxp3^+ Tregs was calculated. Data are represented as means±SEM. NS=not significant, *p<0.05, **p<0.01.
# In FIG. 7A, the percentages of CD69^+ CD8^+ cells were analyzed by flow cytometry (*p<0.05, **p<0.01).
# In FIG. 8A, the percentages of PD-1^+ CD8^+ cells were analyzed by flow cytometry (*p<0.05, **p<0.01).
# Immune cells were obtained from mouse livers and were subjected to measuring cytokine production and flow cytometric analysis.
# Data were analyzed by unpaired t-test with Welch correction (two-side) or Man-Whitney test (two-side). P values less than 0.05 were considered significant. “NS” indicates not significant.
# The impact of EP4 blockage on the prevalence and activation status of immune cells was assessed.
# [2] = test system: obesity-induced NASH-associated mouse liver cancer model; assay: DMBA plus high fat diet-induced NASH-associated mouse liver cancer model: tumor development and body weight; assay type: in vivo
# Experimental: FIG. 1 depicts a mouse model timeline developed by treating with 7,12-dimethylbenz(a)anthracene (“DMBA”), and by feeding with a high fat diet (HFD). Compound A was administered to the mice every day from 19 weeks of age to 30 weeks of age and then euthanized (“Eut”).
# FIG. 2 is macroscopic photographs of the liver isolated from the vehicle-treated mice (left side) and Compound A-treated mice (right side). […] Compound A or a vehicle (n=5, each) were treated to the mice every day from 19 weeks of age to 30 weeks of age. Arrowheads identify hepatocellular carcinomas (HCCs).
# FIG. 3 depicts the average liver tumor numbers and the relative size distribution (classified as >6 mm, 2-6 mm, 2 mm). “NS” means not significant.
# FIG. 4 depicts the average body weight of the vehicle-treated group and Compound A-treated group at the age of 30 weeks. Data are represented as means±SD.
# C57/BL6 mice were purchased from CLEA Japan Inc. The TIr2^−/− mice (C57/BL6) were purchased from Oriental Yeast Co. Ltd.
# Hematoxylin and eosin staining and immunofluorescence analysis were performed as previously described (Yoshimoto et al., Nature, 2013, 499:97-101).
# P values less than 0.05 were considered significant. “NS” indicates not significant.
# This mouse model was developed by treating with DMBA, 7,12-dimethylbenz(a)anthracene, and by feeding a high fat diet (HFD) (Ootani 2013). […] In this experiment, Compound A 30 mg/kg QD was administered to the mice every day from 19 weeks of age to 30 weeks of age (FIG. 1). As a control, a separate group of mice were treated only with a vehicle and no active ingredient.
compound,measurement,setting,value
"C[C@H](NC(=O)c1cc(Cl)cnc1Oc1cccc(F)c1)c1ccc(C(=O)O)cc1 [Compound A, 4-[(1S)-1-({[5-chloro-2-(3-fluorophenoxy)pyridin-3-yl]carbonyl}amino)ethyl]-benzoic acid]",frequency of CD11b+ DCs,[1]; FIG. 5A/5B,not changed
same,frequency of CD11chi MHC class IIhi dendritic cells (DCs),[1]; FIG. 5A/5B,not changed
same,population of CD103+ DCs,[1]; FIG. 5A/5B,increased
same,frequency of CD8+ T cells,[1]; FIG. 6A,not changed
same,ratio of CD8+ T cells to Tregs,[1]; FIG. 6A,increased
same,frequency of CD4+Foxp3+ regulatory T cells (Tregs),[1]; FIG. 6A/6B,significantly reduced
same,frequency of CD4+Foxp3- T cells,[1]; FIG. 6A/6B,"but not CD4^+Foxp3^− T cells, was significantly reduced"
same,number of CD8+ T cells expressing the activation marker CD69,[1]; FIG. 7A/7B,significantly increased
same,number of CD8+ T cells expressing programmed cell death-1 (PD-1),[1]; FIG. 8A/8B,significantly reduced
same,body weight,"[2]; 30 mg/kg QD, at the age of 30 weeks, FIG. 4",did not influence body weight
same,Hepatocellular carcinoma (HCC) development,"[2]; Compound A 30 mg/kg QD from 19 to 30 weeks of age, compared to vehicle-treated mice",strongly reduced
same,Tumor colony sized more than 6 mm,"[2]; after daily therapy from 19 to 30 weeks of age, FIG. 3",completely disappeared
same,tumor number in the liver,"[2]; treated daily from 19 to 30 weeks of age, compared to vehicle-treated mice, FIG. 3",significantly inhibited
